{
  "source": "ChEMBL document CHEMBL1201862",
  "about": "“PubChem BioAssay data set” (2004)",
  "key": {"[1]": {"biological_target": "Kappa-type opioid receptor (Homo sapiens, UniProt P41145)", "sequence (P41145 whole entry)": "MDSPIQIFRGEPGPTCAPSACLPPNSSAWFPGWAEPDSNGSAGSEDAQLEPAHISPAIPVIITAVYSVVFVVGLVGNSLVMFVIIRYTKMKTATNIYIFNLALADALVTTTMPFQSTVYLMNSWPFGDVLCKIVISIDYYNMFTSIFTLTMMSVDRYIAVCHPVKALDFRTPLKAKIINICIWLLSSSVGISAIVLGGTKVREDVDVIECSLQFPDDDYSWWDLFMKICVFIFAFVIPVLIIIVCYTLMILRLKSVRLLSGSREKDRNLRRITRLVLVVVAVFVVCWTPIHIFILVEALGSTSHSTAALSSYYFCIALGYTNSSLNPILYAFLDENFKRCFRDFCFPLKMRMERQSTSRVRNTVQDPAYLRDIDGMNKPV", "format": "functional"}, "[2]": {"experiment": "HEK293 cell cytotoxicity, dose response, cytotoxicity control, plate reader, cherry-picked samples (AID 743446)", "format": "functional, cell-based"}, "[3]": {"biological_target": "T1, Sphingosine 1-phosphate receptor 4 (Homo sapiens, UniProt O95977)", "T1 sequence (O95977 whole entry)": "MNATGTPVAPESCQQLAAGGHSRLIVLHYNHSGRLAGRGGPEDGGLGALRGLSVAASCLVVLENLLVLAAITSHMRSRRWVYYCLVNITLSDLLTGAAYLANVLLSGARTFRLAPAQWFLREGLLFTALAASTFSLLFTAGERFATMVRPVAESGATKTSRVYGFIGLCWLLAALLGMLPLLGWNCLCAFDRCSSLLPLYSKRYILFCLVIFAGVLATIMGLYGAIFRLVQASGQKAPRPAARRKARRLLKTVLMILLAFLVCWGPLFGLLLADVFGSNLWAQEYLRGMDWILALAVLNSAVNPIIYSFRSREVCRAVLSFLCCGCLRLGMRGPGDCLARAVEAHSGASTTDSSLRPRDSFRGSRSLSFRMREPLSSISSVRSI", "experiment": "Late stage fluorescence dose response cell-based screening assay for antagonists of the Sphingosine 1-Phosphate Receptor 4 (S1P4). [Related pubchem assays: 1524 (Confirmation screen (S1P4 antagonists).), 1510 (Primary screen (S1P4 antagonists).), 1853 (Summary AID (S1P4 antagonists).), 1692 (Dose response screen (S1P4 antagonists).)]", "format": "functional"}, "Protein RecA": {"biological_target": "T2, Protein RecA (Mycobacterium tuberculosis, UniProt P9WHJ3)", "T2 sequence (P9WHJ3 whole entry)": "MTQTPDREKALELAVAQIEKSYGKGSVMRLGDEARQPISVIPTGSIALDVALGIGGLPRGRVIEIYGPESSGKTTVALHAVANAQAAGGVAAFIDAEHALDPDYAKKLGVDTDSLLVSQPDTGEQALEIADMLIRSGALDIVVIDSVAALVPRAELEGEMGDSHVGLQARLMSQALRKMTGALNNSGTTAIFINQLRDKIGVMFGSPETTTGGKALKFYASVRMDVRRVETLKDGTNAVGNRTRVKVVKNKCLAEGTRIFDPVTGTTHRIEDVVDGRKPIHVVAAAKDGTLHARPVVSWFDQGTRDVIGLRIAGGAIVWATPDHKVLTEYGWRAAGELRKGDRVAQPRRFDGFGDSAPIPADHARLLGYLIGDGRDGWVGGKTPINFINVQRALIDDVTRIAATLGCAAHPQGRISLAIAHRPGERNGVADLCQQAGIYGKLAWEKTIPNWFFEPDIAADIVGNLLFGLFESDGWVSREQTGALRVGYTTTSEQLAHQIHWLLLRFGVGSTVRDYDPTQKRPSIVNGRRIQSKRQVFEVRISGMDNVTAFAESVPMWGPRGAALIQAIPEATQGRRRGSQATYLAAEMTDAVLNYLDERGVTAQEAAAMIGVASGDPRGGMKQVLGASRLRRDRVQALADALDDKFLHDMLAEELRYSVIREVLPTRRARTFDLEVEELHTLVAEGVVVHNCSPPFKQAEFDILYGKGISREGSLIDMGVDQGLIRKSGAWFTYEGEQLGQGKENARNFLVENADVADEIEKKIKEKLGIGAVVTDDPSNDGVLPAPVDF", "experiment": "Fluorescence Cell-Free Homogeneous Dose Retest to Identify Inhibitors of RecA-Intein Splicing Activity. [Related pubchem assays (depositor defined):AID2097, AID2223, AID489010, AID492950]", "format": "functional"}, "[4]": {"tested_on": "Streptococcus sp. 'group A'", "experiment": "growth inhibition of control SK(-) GAS strain, dose response, counter-screen for streptokinase expression inhibitor project, luminescence, kanamycin, BacTiterGlo, confirmation (AID 1900)", "format": "functional, organism-based"}, "Streptococcus": {"tested_on": "Streptococcus", "experiment": "Group A Streptococcus viability loss, dose response, counter-screen for streptokinase expression inhibitor project, luminescence, BacTiterGlo (AID 1915);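 note: potency for reduction of bacterial viability or growth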", "format": "functional, organism-based"}, "[5]": {"biological_target": "T3, Sentrin-specific protease 6 (Homo sapiens, UniProt Q9GZR1)", "T3 sequence (Q9GZR1 whole entry)": "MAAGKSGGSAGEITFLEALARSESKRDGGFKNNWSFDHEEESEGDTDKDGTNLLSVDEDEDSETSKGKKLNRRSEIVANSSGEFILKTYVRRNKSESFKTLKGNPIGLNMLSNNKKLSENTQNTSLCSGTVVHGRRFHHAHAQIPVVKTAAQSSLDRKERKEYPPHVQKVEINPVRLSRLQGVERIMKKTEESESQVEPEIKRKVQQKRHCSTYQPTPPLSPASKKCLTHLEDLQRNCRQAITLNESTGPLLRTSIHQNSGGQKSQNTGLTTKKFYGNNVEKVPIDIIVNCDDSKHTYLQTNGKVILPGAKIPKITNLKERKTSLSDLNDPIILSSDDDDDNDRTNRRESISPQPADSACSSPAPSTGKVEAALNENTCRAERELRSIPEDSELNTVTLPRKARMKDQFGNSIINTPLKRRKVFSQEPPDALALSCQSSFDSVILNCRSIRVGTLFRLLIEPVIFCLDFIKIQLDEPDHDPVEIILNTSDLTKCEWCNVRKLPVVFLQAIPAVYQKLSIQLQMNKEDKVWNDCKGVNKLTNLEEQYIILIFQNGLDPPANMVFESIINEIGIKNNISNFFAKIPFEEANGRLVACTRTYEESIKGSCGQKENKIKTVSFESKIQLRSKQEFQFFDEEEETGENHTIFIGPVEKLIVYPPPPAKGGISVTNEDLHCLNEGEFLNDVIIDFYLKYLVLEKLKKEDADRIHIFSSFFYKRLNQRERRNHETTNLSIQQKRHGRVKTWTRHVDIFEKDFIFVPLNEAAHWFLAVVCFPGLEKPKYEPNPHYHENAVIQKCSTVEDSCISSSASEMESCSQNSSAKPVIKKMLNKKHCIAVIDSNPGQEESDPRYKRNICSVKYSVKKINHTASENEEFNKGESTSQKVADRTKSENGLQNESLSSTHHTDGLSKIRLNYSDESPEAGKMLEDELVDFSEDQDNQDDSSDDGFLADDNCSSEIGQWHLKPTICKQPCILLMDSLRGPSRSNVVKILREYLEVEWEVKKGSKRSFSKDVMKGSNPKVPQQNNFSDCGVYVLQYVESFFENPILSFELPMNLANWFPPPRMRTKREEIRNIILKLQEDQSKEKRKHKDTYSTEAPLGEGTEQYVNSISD", "experiment": "SAR Analysis of small molecule inhibitors of Sentrin-specific protease 6 (SENP6) using a Luminescent assay. [Related pubchem assays (depositor defined):AID2582, AID2599]", "format": "functional"}},
  "note": "Active and inactive are the calls of the source.",
  "data": [
    {"smiles": "COc1cc(NC(=O)Cn2ncc(Cl)c(Cl)c2=O)c(C)cc1[N+](=O)[O-]", "values": [
      {"measurement": "IC50", "setting": "[1]", "result": "12.9 µM (active)"},
      {"measurement": "AC50", "setting": "[2]", "result": "6.28 µM (active)"},
      {"measurement": "IC50", "setting": "[3]", "result": "6.74 µM (not active)"},
      {"measurement": "EC50", "setting": "Protein RecA", "result": "8.7 µM (active)"}
    ]},
    {"smiles": "Cc1ccc(C)c(S(=O)(=O)N2CCN(Cc3ccc(O)c4ncccc34)CC2)c1", "values": [
      {"measurement": "EC50", "setting": "[4]", "result": "6.87 µM (active)"},
      {"measurement": "EC50", "setting": "Streptococcus", "result": "15 µM (active)"}
    ]},
    {"smiles": "Oc1ccc(/C=N\\Nc2cc(N3CCOCC3)nc(N3CCOCC3)n2)c(O)c1", "values": [
      {"measurement": "IC50", "setting": "[5]", "result": "31.8 µM (active)"}
    ]}
  ]
}
